# Assay results reported in patent US8455186B2, “Method of detection of microorganisms with enhanced bacteriophage amplification” (priority 2007, dated 2013).
# Columns and labels:
# S. aureus strains [1] = test: Stimulation of bacteriophage amplification by fatty acid compounds, all hosts tested; conditions: for effect on bacteriophage amplification: fatty acid compound added to growth medium
# [2] = tested on: clinical MRSA (methicillin-resistant S. aureus) isolates; test: Phage amplification in MRSA strains with cefoxitin and/or lauric acid (FIG. 3)
# Text: In FIG. 3, each symbol represents a clinical MRSA (methicillin-resistant S. aureus) isolate able to grow in the presence of β-lactam antibiotics such as cefoxitin. The first column 62 (circles) indicates amplification by MRSA strains with no cefoxitin and no lauric acid. The second column 64 (squares) indicates amplification with added cefoxitin. […] The third column 66 (diamonds) indicates amplification with added lauric acid. The fourth column 70 (x's) indicate amplification with added lauric acid and cefoxitin.
# [3] = tested on: clinical isolates of S. aureus (poorest hosts for bacteriophage amplification); test: Bacteriophage amplification (MP112 and MP115) on poor or restrictive S. aureus hosts with lauric acid (FIG. 1)
# Text: The 28 strains in this study were chosen from a collection of 202 clinical isolates as the poorest hosts for bacteriophage amplification.
# [4] = tested on: clinical isolates of S. aureus (good bacteriophage hosts); test: Bacteriophage amplification on permissive (good) S. aureus hosts with lauric acid (FIG. 2)
# S. aureus strains [5] = test: Bacteriophage mean amplification versus sodium pyruvate concentration (FIG. 5); assay type: cell-based, Staphylococcus aureus
# [6] = tested on: panel of 32 S. aureus strains; test: Bacteriophage sensitivity versus sodium pyruvate concentration (FIG. 4)
smiles,measurement,setting,value
CCCCCCCCCC(=O)O [capric acid],effect on bacteriophage amplification,S. aureus strains [1],positively stimulate bacteriophage amplification
CCCCCC(=O)O [caproic acid],effect on bacteriophage amplification,S. aureus strains [1],positively stimulate bacteriophage amplification
CCCCCCCC(=O)O [caprylic acid],effect on bacteriophage amplification,S. aureus strains [1],positively stimulate bacteriophage amplification
"CO[C@@]1(NC(=O)Cc2cccs2)C(=O)N2C(C(=O)O)=C(COC(N)=O)CS[C@@H]21 [cefoxitin, reference compound]",effect on phage amplification in MRSA strains,"[2]; added cefoxitin, no lauric acid",suppression of phage amplification
CCCCCCCCCCCC(=O)OCC(O)CO (stereo not shown) [glycerol monolaurate],effect on bacteriophage amplification,S. aureus strains [1],positively stimulate bacteriophage amplification
CCCCCCCCCCCC(=O)O [lauric acid],S. aureus strains tested showing stimulation of bacteriophage amplification,"S. aureus strains [1]; in response to lauric acid, strains tested to date",more than 80%
same,effect on phage amplification in MRSA strains,[2]; added lauric acid and cefoxitin,relieves suppression of phage amplification by cefoxitin
same,average level of amplification (output pfu/ml divided by input pfu/ml),"[3]; 30 μg/ml lauric acid, 28 poor-host strains, four hours at 35°, three-fold with no lauric acid",45 fold
same,effect on amplification on poor or restrictive S. aureus hosts,[3]; FIG. 1 legend,improves amplification
same,effect on bacteriophage amplification on permissive S. aureus hosts,[4]; FIG. 2 legend,increases bacteriophage amplification
same,average amplification,"[4]; with the addition of lauric acid (5-30 μg/ml), good hosts, 69-fold without",over 100 fold
CCCCC/C=C\C/C=C\CCCCCCCC(=O)O [linoleic acid],effect on bacteriophage amplification,S. aureus strains [1],positively stimulate bacteriophage amplification
CCCCCCCCCCCCCC(=O)O [myristic acid],effect on bacteriophage amplification,S. aureus strains [1],positively stimulate bacteriophage amplification
CCCCCCCC/C=C\CCCCCCCC(=O)O [oleic acid],effect on bacteriophage amplification,S. aureus strains [1],positively stimulate bacteriophage amplification
CC(=O)C(=O)[O-].[Na+] [sodium pyruvate],effect on mean amplification of the bacteriophage,S. aureus strains [5]; about 10 mmol/L to 60 mmol/L sodium pyruvate,increased significantly
same,mean amplification of the bacteriophage,"S. aureus strains [5]; about 30 mmol/L sodium pyruvate, about 92 without",150
same,effect on phage sensitivity,"[6]; 10 mmol/L to 50 mmol/L sodium pyruvate, wide variety of S. aureus strains",significantly increase phage sensitivity
same,phage sensitivity,[6]; 15 mmol/L to 31 mmol/L sodium pyruvate,above 90%
same,increase of sensitivity over sensitivities without sodium pyruvate,[6]; 27 mmol/L sodium pyruvate,about 15%
